Data from patent US11291656B2, “Pramipexole transdermal delivery system and uses thereof” (TRANSWELL BIOTECH CO., LTD., priority 2016, dated 2022).
In brackets after ≈: the same amount, converted by molar mass. Like-named read-outs stand apart in the source and are kept apart here.

Columns and labels:
physchem = experiment: physchem
Procedure: Numerous permeation enhancers were evaluated to identify suitable permeation enhancers, including permeation enhancers listed in Table 4 below that lists solubility of pramipexole in the respective permeation enhancers.

In the case of CCCN[C@H]1CCc2nc(N)sc2C1 [Pramipexole], the API solubility (in adhesive DURO-TAK 87-2054 (acrylate-vinylacetate, —COOH)) is reported as “adequate solubility”, the API solubility (in adhesive DURO-TAK 87-2054 (acrylate-vinylacetate, —COOH), listed as API) is reported as 10% and the API solubility (in adhesive DURO-TAK 87-2510 (Acrylic, —OH)) is reported as “adequate solubility”. The API solubility (in adhesive DURO-TAK 87-2510 (Acrylic, —OH), listed as API) was 5%, the API solubility (in adhesive DURO-TAK 87-2979 (acrylate-vinylacetate, —COOOH/—OH)) was “adequate solubility” and the API solubility (in adhesive DURO-TAK 87-2979 (acrylate-vinylacetate, —COOOH/—OH), listed as API) was 10%. For the same compound, the API solubility (in adhesive DURO-TAK 87-4287 (acrylate-vinylacetate, —OH)) was “adequate solubility”, the API solubility (in adhesive DURO-TAK 87-4287 (acrylate-vinylacetate, —OH), listed as API) was 8% and the solubility (physchem; Brij 30, organic solvent or mixture) was 111 mg/mL (≈ 526 mM). The solubility (physchem; Transcutal P, organic solvent or mixture) was 122 mg/mL (≈ 577 mM), the solubility (physchem; Tween 80, organic solvent or mixture) was 86.1 mg/mL (≈ 407 mM) and the solubility (physchem; ethyl acetate, organic solvent or mixture) was 34.3 mg/mL (≈ 162 mM). The solubility (physchem; isopropyl alcohol, organic solvent or mixture) was 107 mg/mL (≈ 505 mM), the solubility (physchem; limonene, organic solvent or mixture) was 5.34 mg/mL (≈ 25.3 mM) and the solubility (physchem; methanol, organic solvent or mixture) was 100 mg/mL (≈ 474 mM). It also gave a solubility (physchem; methyl laurate, oil or lipid) of 7.07 mg/mL (≈ 33.5 mM), a solubility (physchem; octanol, organic solvent or mixture) of 113 mg/mL (≈ 535 mM) and a solubility (physchem; oleic acid, oil or lipid) of 59 mg/mL (≈ 279 mM). For the same compound, the solubility (physchem; oleyl alcohol, oil or lipid) was 113 mg/mL (≈ 535 mM) and the solubility (physchem; propylene glycol (PG), organic solvent or mixture) was 55.6 mg/mL (≈ 263 mM).
